Columns and labels:
[1] = system: peritoneal macrophages; type: cell-based, C57BL6 mice
[2] = system: peritoneal macrophages; type: cell-based, C57BL6 mice; remark: listed apart in the source
[3] = system: peritoneal macrophages derived from MyD88 KO mice; type: cell-based, MyD88 KO mice (C57BL6 background)
[4] = system: peritoneal macrophages derived from MyD88 KO mice; type: cell-based, MyD88 KO mice (C57BL6 background); remark: listed apart in the source
[5] = system: peritoneal macrophages from TLR9 KO mice; type: cell-based

5′-CTGCCACGTTCTCCTGCA*C*C*-3′ [nuclease resistant EN101]
number of MAC-1 positive cells [1]: minor effect
survival/proliferation of total and activated peritoneal macrophages ([1]; 72 hr): inhibited
MIP-2 secretion from PMs [2]: inhibited
levels of MIP-2 in the supernatants of PM [2]: strongly elevated
secretion of IL-6 from activated PMs [2]: did not induce secretion
secretion of TNF-α from activated PMs [2]: did not induce secretion
number of MAC-1 positive cells [3]: reduced significantly
effect on MIP-2 levels in the supernatants of PMs [4]: almost totally inhibited
number of total and MAC-1 positive cells [5]: reduced significantly

— US20090275634A1 (priority 2006, published 2009)
